Starred links: 1 amine or outer side, 2 acyl side, 3 side chain; linkers in the order of their positions; H or OH if unused. Positions of bridges follow the written chain, without caps; N, C: chain ends. Residues, ends and D or L forms follow the SMILES beside them. TBMB = c1c(C[*:1])cc(C[*:3])cc1C[*:2]
Experiments:
RbAp48 [1] = biological target: T1, RbAp48 (Homo sapiens, UniProt Q09028); assay: Competitive fluorescence polarization (FP) assay using complex of peptide 1 and RbAp48; format: binding; design: Full length RbAp48 was cloned; His tag followed by 3C cleavage site (N, cleaved yes); made in house; host or cells: Sf9 insect cells; settings: Table 1; competitive FP, tracer peptide 1 1 nM, RbAp48 15 nM, 20 mM Tris-HCl, 150 mM NaCl, 0.01% Tween-20, pH 7.5, 30 min room temperature; lower limit set by 15 nM protein; read-out: IC50
T1 sequence (Q09028 whole entry): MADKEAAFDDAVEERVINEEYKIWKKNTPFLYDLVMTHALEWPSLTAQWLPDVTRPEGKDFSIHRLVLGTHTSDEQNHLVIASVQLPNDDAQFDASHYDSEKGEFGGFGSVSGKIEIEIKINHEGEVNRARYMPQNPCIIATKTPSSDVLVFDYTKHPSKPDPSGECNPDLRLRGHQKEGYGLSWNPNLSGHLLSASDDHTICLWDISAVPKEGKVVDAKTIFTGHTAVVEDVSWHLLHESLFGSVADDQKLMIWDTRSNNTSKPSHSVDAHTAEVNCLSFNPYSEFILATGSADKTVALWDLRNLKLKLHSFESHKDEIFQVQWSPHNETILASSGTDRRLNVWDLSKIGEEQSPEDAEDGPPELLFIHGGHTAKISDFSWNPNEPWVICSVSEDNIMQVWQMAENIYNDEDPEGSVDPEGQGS
Outline: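 Sf9-expressed full-length RbAp48 (tag cleaved), 15 nM, displaced from 1 nM fluorescent peptide tracer in 20 mM Tris-HCl pH 7.5, 150 mM NaCl, 0.01% Tween-20. Read by FP (ex 485/em 535 nm) after 30 min at room temperature.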

RbAp48 [2] = biological target: T1, RbAp48; assay: Isothermal titration calorimetry (direct and competitive); format: binding; design: Full length RbAp48 was cloned; His tag followed by 3C cleavage site (N, cleaved yes); made in house; host or cells: Sf9 insect cells; settings: competitive ITC with weak ligand 40
Procedure: The weak ligand interferes with binding of the strong ligand allowing the use of higher concentrations and therefore stronger signal. The actual affinity and thermodynamic parameters can then be calculated from the measured values.[ ^20 , ^21 ] The long linear peptide 2, monocyclic peptide 8, and bicyclic peptide 33 were analysed using this method and the results are reported in Table 2 (See Figure 4 A and Supplemental Figure 13–16). […] An effect which could not clearly be observed by the FP assay as it's lower limits were reached.
Protein expression and purification
RbAp48 was expressed and purified by the Dortmund Protein Facility. Full length RbAp48 was cloned into a pOPIN vector ligating it to an N-terminal His tag followed by a 3C cleavage site. The protein was expressed from Sf9 cells for 48 h. Cells were harvested and lysed and the protein was purified by loading onto a HisTrap FF crude 5 ml column followed by on-column cleavage using Precission protease. The cleaved protein was then further purified using a HiLoad 26/60 Superdex 200 column.
Fluorescence polarization assay […]
Isothermal Titration Calorimetry
Isothermal titration calorimetry measurements w ere performed using a Microcal ITC-200 device. The buffer for all measurements consisted of 20 mM Tris, 150 mM NaCl, pH 7.5 and all measurements were performed at 25°C in duplicate except for 8. RbAp48 was dialyzed overnight using a 10 kDa MWCO Slide-A-lizer dialysis membrane and peptide samples were dissolved in the dialysis buffer. Direct measurements of 40 were perfomed by titrating the peptide ( 800 µM) into the cell containing RbAp48 (40 µM) using 2 µl injection after an initial injection of 0.5 µl. […]
by competitive ITC where the protein is premixed with a weak ligand ( 40).[1] Competitive measurements were performed by titrating 2, 8 or 33 (300 µM) into the cell containing RbAp48 (30 µM) and 40 (416 µM). Other conditions were the same as for the direct measurement described above.
Ki was calculated according using the following formula: […]

## CC(=O)N[C@H]1CSCc2cc3cc(c2)CSC[C@@H](C(=O)N[C@@H](C)C(N)=O)NC(=O)[C@@H]2CCCN2C(=O)[C@H](CCCCN)NC(=O)[C@H](Cc2ccc(O)cc2)NC(=O)[C@@H]2CCCN2C(=O)[C@H](CCCNC(=N)N)NC(=O)[C@H](CCCNC(=N)N)NC(=O)[C@H](C)NC(=O)[C@H](CSC3)NC(=O)[C@H](CCCNC(=N)N)NC(=O)[C@H](CCCCN)NC(=O)[C@H]([C@@H](C)O)NC1=O [Peptide 33] (Ac-CTKRCARRPYKPCA-NH2; linker 1-5-13 via TBMB)
RbAp48 [1]
  IC50: 0.0123 ± 0.002 µM
RbAp48 [2]
  Kd: 0.00856 µM
